27 compounds from patent publication US9802927B2, “Oxadiazine compounds and methods of use thereof” (Denali Therapeutics, Inc., priority 2015, dated 2017) can be followed below.

The term EC50 denotes the midpoint of the concentration-response curve.

The first test has as its system Aβ42. Kind of test: In vitro cell screening assay in H4 cells expressing human APP751: Aβ42 by sandwich ELISA. The settings on record: Homo sapiens, compounds 0.003-10 μM, incubated overnight (16-18 h), sandwich ELISA of supernatant. In kind it is cell-based. Put shortly: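 H4 neuroglioma cells stably expressing wild-type human APP751, switched to Pro293 medium and treated with compounds (0.003-10 μM, 0.33% DMSO) for 16-18 h at 37 °C. Supernatant Aβ42 quantified by sandwich ELISA (C-terminal capture, 4G8-HRP detection, A450); EC50 by sigmoidal fit normalized to DMSO and DAPT controls.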
Background: In an ELISA, binding on a coated surface is turned into a signal by an enzyme label.
Compound `COc1nc(C2=NOCC(C)N2)ccc1-n1cnc(C)c1` (single isomer, unassigned; (+)) [Example 149A, (+)-3-(6-methoxy-5-(4-methyl-1H-imidazol-1-yl)pyridin-2-yl)-5-methyl-5,6-dihydro-4H-1,2,4-oxadiazine] yielded an EC50 of over 3 µM.

`COc1nc(C2=NOCC(c3cscn3)N2)ccc1-n1cnc(C)c1` (single isomer, unassigned; (+)) [Example 156A, (+)-3-(6-methoxy-5-(4-methyl-1H-imidazol-1-yl)pyridin-2-yl)-5-(thiazol-4-yl)-5,6-dihydro-4H-1,2,4-oxadiazine] had an EC50 of 1.73 µM.

`COc1nc(C2=NOCC(c3ccccn3)N2)ccc1-n1cnc(C)c1` (single isomer, unassigned; (+)) [Example 168A, (+)-3-(6-methoxy-5-(4-methyl-1H-imidazol-1-yl)pyridin-2-yl)-5-(pyridin-2-yl)-5,6-dihydro-4H-1,2,4-oxadiazine]: the EC50 was over 3 µM.

As for `COc1nc(C2=NOCC(C3CCS(=O)(=O)CC3)N2)ccc1-n1cnc(C)c1` (single isomer, unassigned; (+)) [Example 177A, (+)-4-(3-(6-methoxy-5-(4-methyl-1H-imidazol-1-yl)pyridin-2-yl)-5,6-dihydro-4H-1,2,4-oxadiazin-5-yl) tetrahydro-2H-thiopyran 1,1-dioxide], the EC50 is over 3 µM.

The test is the same for the next values; noted with them: compounds 0.003-10 μM, incubated overnight (16-18 h), sandwich ELISA of supernatant.
Consider `COc1nc(C2=NOCC(C3CCOCC3)N2)ccc1-n1cnc(C)c1` (single isomer, unassigned; (+)) [Example 143B, (+)-3-(6-methoxy-5-(4-methyl-1H-imidazol-1-yl)pyridin-2-yl)-5-(tetrahydro-2H-pyran-4-yl)-5,6-dihydro-4H-1,2,4-oxadiazine], for which the EC50 is 2.46 µM.

As for `COc1cccc(C2CON=C(c3ccc(-n4cnc(C)c4)c(OC)n3)N2)c1` (single isomer, unassigned; (+)) [Example 145B, (+)-3-(6-methoxy-5-(4-methyl-1H-imidazol-1-yl)pyridin-2-yl)-5-(3-methoxyphenyl)-5,6-dihydro-4H-1,2,4-oxadiazine], the EC50 stood at 0.197 µM.

`COc1nc(C2=NOCC(C(C)(C)C)N2)ccc1-n1cnc(C)c1` (single isomer, unassigned; (+)) [Example 147B, (+)-5-(tert-butyl)-3-(6-methoxy-5-(4-methyl-1H-imidazol-1-yl)pyridin-2-yl)-5,6-dihydro-4H-1,2,4-oxadiazine]: the EC50 came to 1.72 µM.

Turning to `COc1nc(C2=NOCC(c3ccc(C#N)cc3)N2)ccc1-n1cnc(C)c1` (single isomer, unassigned; (+)) [Example 151B, (+)-4-(3-(6-methoxy-5-(4-methyl-1H-imidazol-1-yl)pyridin-2-yl)-5,6-dihydro-4H-1,2,4-oxadiazin-5-yl) benzonitrile], the EC50 was found to be 0.451 µM.

`COc1nc(C2=NOCC(CC(C)C)N2)ccc1-n1cnc(C)c1` (single isomer, unassigned; (+)) [Example 154A, (+)-5-isobutyl-3-(6-methoxy-5-(4-methyl-1H-imidazol-1-yl)pyridin-2-yl)-5,6-dihydro-4H-1,2,4-oxadiazine] gave an EC50 of 0.93 µM.

`COc1nc(C2=NOCC(c3oc(C)nc3C)N2)ccc1-n1cnc(C)c1` (single isomer, unassigned; (+)) [Example 161B, (+)-5-(2,4-dimethyloxazol-5-yl)-3-(6-methoxy-5-(4-methyl-1H-imidazol-1-yl)pyridin-2-yl)-5,6-dihydro-4H-1,2,4-oxadiazine] showed an EC50 of over 3 µM.

Compound `COc1nc(C2=NOCC(C3CCC3)N2)ccc1-n1cnc(C)c1` (single isomer, unassigned; (+)) [Example 163A, (+)-5-cyclobutyl-3-(6-methoxy-5-(4-methyl-1H-imidazol-1-yl)pyridin-2-yl)-5,6-dihydro-4H-1,2,4-oxadiazine] showed an EC50 of over 3 µM.

In turn, `COc1nc(C2=NOCC(c3cnn(C)c3)N2)ccc1-n1cnc(C)c1` (single isomer, unassigned; (+)) [Example 166B, (+)-3-(6-methoxy-5-(4-methyl-1H-imidazol-1-yl)pyridin-2-yl)-5-(1-methyl-1H-pyrazol-4-yl)-5,6-dihydro-4H-1,2,4-oxadiazine] showed an EC50 of over 3 µM.

The compound `COc1nc(C2=NOCC(C3CCCC3)N2)ccc1-n1cnc(C)c1` (single isomer, unassigned; (+)) [Example 171A, (+)-5-cyclopentyl-3-(6-methoxy-5-(4-methyl-1H-imidazol-1-yl)pyridin-2-yl)-5,6-dihydro-4H-1,2,4-oxadiazine] gave an EC50 of 0.918 µM.

`COc1nc(C2=NOCC(C3CC(F)(F)C3)N2)ccc1-n1cnc(C)c1` (single isomer, unassigned; (+)) [Example 180B, (+)-5-(3,3-difluorocyclobutyl)-3-(6-methoxy-5-(4-methyl-1H-imidazol-1-yl)pyridin-2-yl)-5,6-dihydro-4H-1,2,4-oxadiazine] came in with an EC50 of 0.281 µM.

Compound `COc1nc(C2=NOCC(c3ccc4ncsc4c3)N2)ccc1-n1cnc(C)c1` (single isomer, unassigned; (+)) [Example 183B, (+)-5-(benzo [d]thiazol-6-yl)-3-(6-methoxy-5-(4-methyl-1H-imidazol-1-yl)pyridin-2-yl)-5,6-dihydro-4H-1,2,4-oxadiazine] yielded an EC50 of 0.26 µM.

Take `COc1nc(C2=NOCC(c3cc4ccccc4o3)N2)ccc1-n1cnc(C)c1` (single isomer, unassigned; (+)) [Example 186B, (+)-5-(benzofuran-2-yl)-3-(6-methoxy-5-(4-methyl-1H-imidazol-1-yl)pyridin-2-yl)-5,6-dihydro-4H-1,2,4-oxadiazine]: the EC50 was 0.0384 µM.

`COc1nc(C2=NOCC(c3cn(C)c4ccccc34)N2)ccc1-n1cnc(C)c1` (single isomer, unassigned; (+)) [Example 189A, (+)-3-(6-methoxy-5-(4-methyl-1H-imidazol-1-yl)pyridin-2-yl)-5-(1-methyl-1H-indol-3-yl)-5,6-dihydro-4H-1,2,4-oxadiazine] returned an EC50 of 0.024 µM.

As for `COc1nc(C2=NOCC(c3cn(C)c4ccc(F)cc34)N2)ccc1-n1cnc(C)c1` (single isomer, unassigned; (+)) [Example 190B, (+)-5-(5-fluoro-1-methyl-1H-indol-3-yl)-3-(6-methoxy-5-(4-methyl-1H-imidazol-1-yl)pyridin-2-yl)-5,6-dihydro-4H-1,2,4-oxadiazine], it took 0.0195 µM to reach a half-maximal effect (EC50).

On to `COc1nc(C2=NOCC(c3cn(C)c4cccc(F)c34)N2)ccc1-n1cnc(C)c1` (single isomer, unassigned; (+)) [Example 191A, (+)-5-(4-fluoro-1-methyl-1H-indol-3-yl)-3-(6-methoxy-5-(4-methyl-1H-imidazol-1-yl)pyridin-2-yl)-5,6-dihydro-4H-1,2,4-oxadiazine], for which the EC50 turned out to be 0.0069 µM.

On to `COc1nc(C2=NOCC(c3cn(C)c4cc(F)ccc34)N2)ccc1-n1cnc(C)c1` (single isomer, unassigned; (+)) [Example 192B, (+)-5-(6-fluoro-1-methyl-1H-indol-3-yl)-3-(6-methoxy-5-(4-methyl-1H-imidazol-1-yl)pyridin-2-yl)-5,6-dihydro-4H-1,2,4-oxadiazine], for which a half-maximal effect (EC50) was put at 0.0085 µM.

`COc1nc(C2=NOCC(c3cn(C)c4ccc(Cl)cc34)N2)ccc1-n1cnc(C)c1` (single isomer, unassigned; (+)) [Example 193B, (+)-5-(5-chloro-1-methyl-1H-indol-3-yl)-3-(6-methoxy-5-(4-methyl-1H-imidazol-1-yl)pyridin-2-yl)-5,6-dihydro-4H-1,2,4-oxadiazine] returned a concentration giving a half-maximal response (EC50) of 0.0049 µM.

In turn, `COc1nc(C2=NOCC(c3cn(C)c4cc(Cl)ccc34)N2)ccc1-n1cnc(C)c1` (single isomer, unassigned; (+)) [Example 194A, (+)-5-(6-chloro-1-methyl-1H-indol-3-yl)-3-(6-methoxy-5-(4-methyl-1H-imidazol-1-yl)pyridin-2-yl)-5,6-dihydro-4H-1,2,4-oxadiazine] came in with an EC50 of 0.0077 µM.

For the compound `COc1nc(C2=NOCC(c3cn(C)c4ncccc34)N2)ccc1-n1cnc(C)c1` (single isomer, unassigned; (+)) [Example 195B, (+)-3-(6-methoxy-5-(4-methyl-1H-imidazol-1-yl)pyridin-2-yl)-5-(1-methyl-1H-pyrrolo [2,3-b]pyridin-3-yl)-5,6-dihydro-4H-1,2,4-oxadiazine], the EC50 was determined as 0.163 µM.

In the case of `COc1nc(C2=NOCC(c3cn(C(C)C)c4cccc(F)c34)N2)ccc1-n1cnc(C)c1` (single isomer, unassigned; (+)) [Example 196A, (+)-5-(4-fluoro-1-isopropyl-1H-indol-3-yl)-3-(6-methoxy-5-(4-methyl-1H-imidazol-1-yl)pyridin-2-yl)-5,6-dihydro-4H-1,2,4-oxadiazine], the EC50 came out at 0.0225 µM.

Take `COc1nc(C2=NOCC(c3cn(C)c4cc(C(F)(F)F)ccc34)N2)ccc1-n1cnc(C)c1` (single isomer, unassigned; (+)) [Example 197A, (+)-3-(6-methoxy-5-(4-methyl-1H-imidazol-1-yl)pyridin-2-yl)-5-(1-methyl-6-(trifluoromethyl)-1H-indol-3-yl)-5,6-dihydro-4H-1,2,4-oxadiazine]: the EC50 is 0.0034 µM.

The compound `COc1nc(C2=NOCC(c3cn(C)c4ccccc34)N2C)ccc1-n1cnc(C)c1` (single isomer, unassigned; (+)) [Example 200A, (+)-3-(6-methoxy-5-(4-methyl-1H-imidazol-1-yl)pyridin-2-yl)-4-methyl-5-(1-methyl-1H-indol-3-yl)-5,6-dihydro-4H-1,2,4-oxadiazine] came in with an EC50 of 0.154 µM.

`COc1nc(C2=NOCC(c3nc4ccccc4o3)N2)ccc1-n1cnc(C)c1` (single isomer, unassigned; (+)) [Example 203B, (+)-2-(3-(6-methoxy-5-(4-methyl-1H-imidazol-1-yl)pyridin-2-yl)-5,6-dihydro-4H-1,2,4-oxadiazin-5-yl)benzo[d]oxazole]: the EC50 was 0.256 µM.
